Entries after “also recorded” stand apart in the source; their conditions may differ. Where two headings read alike, the source gives them in different places.
Legend:
[1] = Stability of aqueous hCT solutions against fibrillation or precipitation (solution remains clear on storage); conditions: for solution is stable for: Example 1 repeated (5 mg/ml hCT) with acetic acid replaced by the named acid; for ability of an acid to produce a stable solution of hCT (solution remains clear): storing for 24 hours at 25°C
Protocol: The ability of an acid to produce a stable solution can be readily determined by making up a solution and storing it for 24 hours at 25°C.
Example 1 is repeated except that the solutions also contain 0.5% hydroxypropylmethylcellulose.

[2] = Extrapolated time of fibrillation (ln/ln plot of fibrillation time against hCT concentration); conditions: at 4°C; solutions with 5-9 mg/ml hCT in 0.001% acetic acid; from measurements up to 100 mg/ml hCT using the ln/ln plot
[3] = Stability of aqueous hCT solutions against fibrillation or precipitation (solution remains clear on storage); type: physicochemical; conditions: 5 mg/ml hCT; acetic acid 0.0001%, 0.001%, 0.01%, 0.1% and 1.0%; after 8 months
[4] = additive mixed with the hCT solution after preparation

Row | solution is stable for [1] | ability of an acid to produce a stable solution of hCT (solution remains clear) [1] | Molecule | also measured
1 | over 4 days | form stable solutions | O=C(O)C(O)C(O)C(=O)O (racemic) [DL-tartaric acid] | 
2 | over 4 days |  | N[C@@H](CCC(=O)O)C(=O)O [L-glutamic acid] | 
3 | over 4 days | form stable solutions | O=C(O)C(O)C(O)C(=O)O [L-α-tartaric acid] | 
4 | over 4 days | form stable solutions | O=C(O)CCCCC(=O)O [adipic acid] | 
5 | over 4 days | form stable solutions | O=C1O[C@H]([C@@H](O)CO)C(O)=C1O [ascorbic acid] | 
6 |  | do not form stable solutions | N[C@@H](CC(=O)O)C(=O)O [aspartic acid] | 
7 |  |  | CC(C)(C)CC(C)(C)c1ccc(OCCOCC[N+](C)(C)Cc2ccccc2)cc1 [benzethonium chloride] | effect of additive on the stability of the hCT solution [1, 4]: do not diminish the stability; also recorded: improve the stability
8 |  |  | [H]/N=C(\N/C(=N/[H])NCCCCCCNC(=N)NC(=N)Nc1ccc(Cl)cc1)Nc1ccc(Cl)cc1 [chlorhexidine diacetate] | effect of additive on the stability of the hCT solution [1]: do not diminish the stability
9 |  |  | CCO [ethanol] | effect of additive on the stability of the hCT solution [1]: do not diminish the stability
10 |  | do not form stable solutions | O=C(O)[C@H](O)[C@@H](O)[C@H](O)[C@H](O)CO [gluconic acid] | 
11 |  |  | CC[C@H](C)[C@H](NC(=O)[C@H](C)NC(=O)[C@@H](NC(=O)[C@H](CCC(N)=O)NC(=O)[C@@H]1CCCN1C(=O)[C@H](Cc1ccccc1)NC(=O)[C@@H](NC(=O)[C@H](Cc1c[nH]cn1)NC(=O)[C@H](Cc1ccccc1)NC(=O)[C@H](CCCCN)NC(=O)[C@H](CC(N)=O)NC(=O)[C@H](Cc1ccccc1)NC(=O)[C@H](CC(=O)O)NC(=O)[C@H](CCC(N)=O)NC(=O)[C@@H](NC(=O)[C@H](Cc1ccc(O)cc1)NC(=O)[C@@H](NC(=O)CNC(=O)[C@H](CC(C)C)NC(=O)[C@H](CCSC)NC(=O)[C@@H]1CSSC[C@H](N)C(=O)NCC(=O)N[C@@H](CC(N)=O)C(=O)N[C@@H](CC(C)C)C(=O)N[C@@H](CO)C(=O)N[C@@H]([C@@H](C)O)C(=O)N1)[C@@H](C)O)[C@@H](C)O)[C@@H](C)O)[C@@H](C)O)C(=O)NCC(=O)N[C@H](C(=O)NCC(=O)N[C@@H](C)C(=O)N1CCC[C@H]1C(N)=O)C(C)C [hCT] | stability predicted [2]: more than 5 years; stability of solution [3]: stable and perfectly clear
12 |  |  | OC[C@H]1O[C@@H](O[C@H]2[C@H](O)[C@@H](O)C(O)O[C@@H]2CO)[C@H](O)[C@@H](O)[C@H]1O (stereo partly shown) [lactose] | effect of additive on the stability of the hCT solution [1]: do not diminish the stability
13 |  | do not form stable solutions | O=C(O)/C=C\C(=O)O [maleic acid] | 
14 | over 4 days | form stable solutions | O=C(O)CC(=O)O [malonic acid] | 
15 |  |  | OC[C@@H](O)[C@@H](O)[C@H](O)[C@H](O)CO [mannitol] | effect of additive on the stability of the hCT solution [1]: do not diminish the stability
16 | over 4 days |  | O=C(O)CCC(=O)O [succinic acid] | 
17 |  |  | OC[C@H]1O[C@@](CO)(O[C@H]2O[C@H](CO)[C@@H](O)[C@H](O)[C@H]2O)[C@@H](O)[C@@H]1O [sucrose] | effect of additive on the stability of the hCT solution [1]: do not diminish the stability
18 |  |  | OC[C@H]1O[C@H](O[C@H]2O[C@H](CO)[C@@H](O)[C@H](O)[C@H]2O)[C@H](O)[C@@H](O)[C@@H]1O [trehalose] | effect of additive on the stability of the hCT solution [1]: do not diminish the stability
19 |  |  | benzalkonium chloride | effect of additive on the stability of the hCT solution [1, 4]: do not diminish the stability
20 |  | do not form stable solutions | sulphuric acid | 

Row | Molecule | solution is stable for [1] | ability of an acid to produce a stable solution of hCT (solution remains clear) [1] | also measured
21 | N[C@H](CCC(=O)O)C(=O)O [D-glutamic acid] |  | do not form stable solutions | 
22 | O=C(O)CC(O)(CC(=O)O)C(=O)O [citric acid] | over 4 days | form stable solutions | 
23 | O=C(O)CN(CCN(CC(=O)O)CC(=O)O)CC(=O)O [ethylene - diamine tetraacetic acid] |  | form stable solutions | 
24 | O=CO [formic acid] | over 4 days | form stable solutions | 
25 | O=C(O)CCCC(=O)O [glutaric acid] | over 4 days | form stable solutions | 
26 | Cl [hydrochloric acid] | over 4 days | form stable solutions | 
27 | Oc1ccccc1 [phenol] |  | form stable solutions | 

— EP0490549B1, “Stabilisation of pharmaceutical compositions comprising calcitonin” (CIBA-GEIGY AG, priority 1990, dated 1995)
